Assay: Safety and tolerability (adverse events, laboratory, vital signs, ECG) in phase 1a trial in healthy subjects
Format: in vivo, human
Description: The primary objective was to assess the safety and tolerability of single (SAD) and multiple (MAD) ascending doses of anle138b to healthy subjects in the fasted state and to assess the safety and tolerability of single doses of anle138b in both the fasted and fed state (FES). To this end, adverse events (AEs), clinical laboratory tests, vital signs, electrocardiograms (ECGs), QT interval corrected for heart rate using Fridericia's formula (QTcF), and physical examination findings were recorded. Participants were instructed to report all potential AEs immediately to the on-site personnel and were assessed by a physician before each dose of study drug. In addition, a physical examination of the relevant body system was performed in the event that a subject reports any new symptoms or AEs. AEs were defined following standard criteria, which are described in the protocol. The detailed parameters and sampling schedule regarding haematology, clinical chemistry, ECG, blood pressure, heart rate and PK are provided in the supplement (supplement 3). Any clinically significant abnormality in these assessments, including changes from baseline, were needed to be reported as an AE.
AEs and medications were coded using the Medical Dictionary for Regulatory Activities (MedDRA) (v22·1). An independent coding review was performed within the Data Sciences department. Clinical chemistry and haematology data (and other safety laboratory data) were collected by a central laboratory (The Doctors Laboratory) and transferred electronically to Quotient Sciences. The list of parameters is provided in supplement 2. All demographic details and sample dates were cross-referenced with the corresponding data on the study database. Data was monitored by an external entity (Wirral Clinical Consultancy Ltd, Heswall, UK). Monitoring included the conduct of a site initiation visit, interim monitoring visits and a close-out visit. The database was closed after all queries had been resolved.
The study was exploratory and no formal sample size calculation was made. Based on experience from previous studies of similar design, eight subjects per cohort were enrolled for parts 1 (SAD) and 2 (MAD) and a total of twelve subjects for part 3 (FES). Populations and analysis sets were determined for safety and PK data after database lock using the criteria defined in the reporting and analysis plan. The safety population and safety analysis set for SAD and MAD were defined after database lock but prior to study unblinding. Statistical analysis and production of summary tables, figures and listings for all safety data (AEs, vital signs, ECGs and safety laboratory assessments) including changes from baseline as required in this study were performed using the statistical package SAS (v9·4). Additional statistics was provided for PK-related data including coefficient of variation (CV%), geometric mean, geometric CV%, and the number n of subjects that were included in the natural logarithmic transformation). In SAD and MAD, dose proportionality was assessed. Formal statistical analysis was performed on the log-transformed PK parameters AUC(0-last), AUC(0-inf), and Cmax for SAD (day 1), and AUC(0-tau) and Cmax for MAD (day 1 and day 7) to assess dose proportionality using the following power model: loge (AUC or Cmax) = µ + βx loge (dose). The estimate obtained for β is a measure of dose proportionality. The estimate of β together with its 90% confidence interval (CI) (βl, βu) was used to quantify the degree of non-proportionality. In MAD, formal statistical analysis was performed on the PK parameters AUC(0-tau) and Cmax to assess dose accumulation. Log-transformed AUC(0-tau) and Cmax was subjected to a mixed-effects model with treatment (dose level), day (day 1 or 7) and treatment-by-day interaction as fixed effects and subject as a random effect. […]

[1] = Food effect cohort, anle138b 150 mg fed and fasted, N=12
[2] = MAD cohorts, anle138b 100-300 mg QD 7 days, N=18
[3] = SAD cohorts, anle138b 50-300 mg single dose, N=24

With `Brc1cccc(-c2cc(-c3ccc4c(c3)OCO4)n[nH]2)c1` [anle138b, 3-(1,3-benzodioxol-5-yl)-5-(3-bromophenyl)-1H-pyrazole] the “Dose dependency of AE reporting” value (50 to 300 mg) was “no dose dependency”, the “Adverse events by attribution to study treatment: Definite, number of events” value (shortened to “Adverse events … Definite, number of events”) (Food effect cohort, N=12) was 0 and the “Adverse events by attribution to study treatment: Not related, number of events (%)” value (Food effect cohort, N=12) was 6 (100). For the same compound, the “Adverse events by attribution to study treatment: Possible, number of events (%)” value (shortened to “Adverse events … Possible, number of events (%)”) (Food effect cohort, N=12) was 0, the “Adverse events by attribution to study treatment: Probable, number of events” value (shortened to “Adverse events … Probable, number of events”) (Food effect cohort, N=12) was 0 and the “Adverse events by grade: Mild, number of events (%)” value (shortened to “Adverse events by grade: Mild … (%)”) (Food effect cohort, N=12) was 6 (100). For the same compound, the “Adverse events by grade: Moderate, number of events (%)” value (Food effect cohort, N=12) was 0, the “Adverse events by outcome: Recovered, number of events (%)” value (“Adverse events by outcome … (%)” for short) (Food effect cohort, N=12) was 6 (100) and the “Eye disorders (ocular hyperaemia, vision blurred): number of events [patients affected %]” value (from here on “Eye disorders … [patients affected %]”) (Food effect cohort, N=12) was 0. The “Gastrointestinal disorders (diarrhea, nausea): number of events [patients affected %]” value (Food effect cohort, N=12) was 0, the “General disorders and administration site conditions (Chest discomfort, fatigue, medical device site reaction): number of events [patients affected %]” value (Food effect cohort, N=12) was 1 [8·3] and the “Infections and infestations (Nasopharyngitis, rhinitis): number of events [patients affected %]” value (Food effect cohort, N=12) was 0. The “Injury, poisoning and procedural complications (procedural dizziness): number of events [patients affected %]” value (from here on “Injury … [patients affected %]”) (Food effect cohort, N=12) was 2 [16·7], the “Musculosceletal and connective tissue disorders (Back pain): number of events [patients affected %]” value (Food effect cohort, N=12) was 0 and the “Nervous system disorders (headache, paraestesia): number of events [patients affected %]” value (“Nervous system disorders … [patients affected %]” for short) (Food effect cohort, N=12) was 3 [25]. The “Psychiatric disorders (abnormal dreams): number of events [patients affected %]” value (“Psychiatric disorders … [patients affected %]” for short) (Food effect cohort, N=12) was 0, the “Number of patients with adverse event(s) [%]” value [1] was 5 [41·7] and the “Number of patients with no adverse event [%]” value [1] was 7 [58·3]. For the same compound, the “Adverse events … Definite, number of events” value (MAD cohorts, N=18) was 0, the “Adverse events by attribution to study treatment: Not related, number of events (%)” value (MAD cohorts, N=18) was 9 (90) and the “Adverse events … Possible, number of events (%)” value (MAD cohorts, N=18) was 1 (10). For the same compound, the “Adverse events … Probable, number of events” value (MAD cohorts, N=18) was 0, the “Adverse events by grade: Mild … (%)” value (MAD cohorts, N=18) was 9 (90) and the “Adverse events by grade: Moderate, number of events (%)” value (MAD cohorts, N=18) was 1 (10). For the same compound, the “Adverse events by outcome … (%)” value (MAD cohorts, N=18) was 10 (100), the “Eye disorders … [patients affected %]” value (MAD cohorts, N=18) was 1 [5·6] and the “Gastrointestinal disorders (diarrhea, nausea): number of events [patients affected %]” value (MAD cohorts, N=18) was 1 [5·6]. For the same compound, the “General disorders and administration site conditions (Chest discomfort, fatigue, medical device site reaction): number of events [patients affected %]” value (MAD cohorts, N=18) was 1 [5·6], the “Infections and infestations (Nasopharyngitis, rhinitis): number of events [patients affected %]” value (MAD cohorts, N=18) was 1 [5·6] and the “Injury … [patients affected %]” value (MAD cohorts, N=18) was 0. The “Musculosceletal and connective tissue disorders (Back pain): number of events [patients affected %]” value (MAD cohorts, N=18) was 2 [11·1], the “Nervous system disorders … [patients affected %]” value (MAD cohorts, N=18) was 4 [16·7] and the “Psychiatric disorders … [patients affected %]” value (MAD cohorts, N=18) was 0. The “Number of patients with adverse event(s) [%]” value [2] was 6 [33·3], the “Number of patients with no adverse event [%]” value [2] was 12 [66·7] and the “Moderate AE” value (MAD part, 100 mg anle138b) was “an episode of back pain”. The “AE considered possibly related to the study medication” value (MAD part, 200 mg anle138b, assessed prior to unblinding) was “one event of headache”, the “Adverse events … Definite, number of events” value (SAD cohorts, N=24) was 0 and the “Adverse events by attribution to study treatment: Not related, number of events (%)” value (SAD cohorts, N=24) was 5 (100). The “Adverse events … Possible, number of events (%)” value (SAD cohorts, N=24) was 0, the “Adverse events … Probable, number of events” value (SAD cohorts, N=24) was 0 and the “Adverse events by grade: Mild … (%)” value (SAD cohorts, N=24) was 5 (100). For the same compound, the “Adverse events by grade: Moderate, number of events (%)” value (SAD cohorts, N=24) was 0, the “Adverse events by outcome … (%)” value (SAD cohorts, N=24) was 5 (100) and the “Eye disorders … [patients affected %]” value (SAD cohorts, N=24) was 1 [4·2]. For the same compound, the “Gastrointestinal disorders (diarrhea, nausea): number of events [patients affected %]” value (SAD cohorts, N=24) was 0, the “General disorders and administration site conditions (Chest discomfort, fatigue, medical device site reaction): number of events [patients affected %]” value (SAD cohorts, N=24) was 0 and the “Infections and infestations (Nasopharyngitis, rhinitis): number of events [patients affected %]” value (SAD cohorts, N=24) was 1 [4·2]. The “Injury … [patients affected %]” value (SAD cohorts, N=24) was 0, the “Musculosceletal and connective tissue disorders (Back pain): number of events [patients affected %]” value (SAD cohorts, N=24) was 1 [4·2] and the “Nervous system disorders … [patients affected %]” value (SAD cohorts, N=24) was 2 [8·3]. The “Psychiatric disorders … [patients affected %]” value (SAD cohorts, N=24) was 0, the “Number of patients with adverse event(s) [%]” value [3] was 4 [16·7] and the “Number of patients with no adverse event [%]” value [3] was 20 [83·3]. The “Tolerability and compound-related side effects” value (all tested doses (up to 300 mg)) was “excellent tolerability and no compound-related side effects” and the “Changes in safety assessments (laboratory values, vital signs, physical examinations, ECG)” value (any subject included in the trial) was “no clinically significant individual changes from baseline or notable trends”.
